Assay results taken from publication PMC8231349 (Journal of Enzyme Inhibition and Medicinal Chemistry, 2021).
Where “and” joins values, the source holds several entries; their conditions need not be identical. Equal entries are not always repeated.

Key:
HO-1 = target: T1, HO-1 (Rattus norvegicus, UniProt P06762); assay: HO-1 enzymatic activity in the microsomal fraction of rat spleen (bilirubin formation); format: biochemical; settings: mean ± SD of triplicate assays
T1 construct: selected in order to use the most native (i.e. closest to in vivo) forms of HO-1; from tissue; host or cells: rat spleen microsomal fraction (male Sprague-Dawley rats)
T1 sequence (P06762 1-289): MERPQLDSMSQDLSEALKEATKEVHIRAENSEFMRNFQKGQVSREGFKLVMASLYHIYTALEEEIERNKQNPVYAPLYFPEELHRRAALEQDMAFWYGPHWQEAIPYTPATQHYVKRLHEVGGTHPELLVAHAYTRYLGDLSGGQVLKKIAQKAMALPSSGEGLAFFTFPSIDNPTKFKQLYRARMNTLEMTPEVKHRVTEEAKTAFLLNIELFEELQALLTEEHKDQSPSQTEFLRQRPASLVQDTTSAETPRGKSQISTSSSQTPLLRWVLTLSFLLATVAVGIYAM
Procedure: Since the dominance of HO-1 protein in the rat spleen has been well documented, HO-1 was obtained from rat spleen as the microsomal fraction prepared by differential centrifugation. This particular microsomal preparation was selected in order to use the most native (i.e. closest to in vivo) forms of HO-1. Spleen (Sprague-Dawley rats) microsomal fractions were prepared according to the procedure outlined by Ryter et al.[33]. The experiments reported in the present paper complied with current Italian law and met the guidelines of the Institutional Animal Care and Use Committee of […] OF HEALTH (Directorate General for Animal Health and Veterinary Medicines) (Italy). […]
Liver cytosol has been used as a source of BVR. […] The 100,000 g supernatant was saved and then stored in small amounts at −80 °C after its protein concentration was measured.
The HO-1 activity was determined by measuring the bilirubin formation using the difference in absorbance at 464 to 530 nm as described by Ryter et al.[33]. […] After recovering the chloroform phase, the amount of bilirubin formed was measured with a double-beam spectrophotometer as OD464-530 nm (extinction coefficient, […] for bilirubin). […]
Inhibition activity assay for HO-1 was performed by extracting the enzyme from the rat spleen microsomal fraction. […] Results are expressed as enzyme inhibition activity (IC50) in μM (Table S2, Supplemental material).

[1] = Chemical stability of 3 in buffer solutions at different pHs (HPLC); format: physicochemical; settings: 37 °C
Procedure: The HPLC analysis of samples at various time intervals from in vitro stability in different buffers and porcine esterase solution was performed on Shimadzu Prominence-i LC-2030C 3 D Plus equipped with RID20A. Detector chromatographic separation were carried out using Chromolith SpeedROD RP […], Merck. Spectra were analysed in 200–800 nm range with 1.2 nm resolution. The column was maintained at 30 °C and eluted under gradient conditions from 100% to 0% of eluent A over 3 min, at a flow rate of 5 ml min^−1. Eluent A: water/trifluoroacetic acid (0.1%, v/v); eluent B: acetonitrile/ trifluoroacetic acid (0.1%, v/v).
A stock solution of compound 3 in DMSO (3.0 mg/mL) was prepared. To a test tube containing 0.9 ml of the corresponding Acetate (pH = 2.0) or PBS buffer solution (pH = 7.4 and 8.0, respectively), 0.1 ml of stock solution was added, and the mixture stirred and thermostated in a sand bath at 37 °C. Aliquots (0.1 ml) were withdrawn at specific time intervals and transferred to sample vials containing acetonitrile (0.9 ml). The percentage of compound remaining was followed by HPLC analysis. The retention time (tR) of compound 1, 2, and 3 were 0.74, 0.89, and 0.95 min, respectively. All the experiments were performed in triplicate.
0.001 g of lyophilised powder of esterase from the porcine liver (Sigma-Aldrich, St. Louis, Missouri, USA) was reconstituted in 1.0 ml PBS buffer (0.01 M, pH 7.4) to make an aqueous porcine esterase solution (5 U/mL), and then pre-thermostated at 37 °C. To a test tube containing 1.85 ml of PBS buffer, 0.15 ml from the stock solution of the test compound was added. The mixture was then stirred and thermostated in a sand bath at 37 °C, and 1.0 ml of the porcine esterase solution was added to initiate the enzymatic reaction. For the negative control reaction, the volume of porcine esterase solution was replaced by phosphate buffer. Aliquots (0.3 ml) were withdrawn at 0, 30, 60, 120, 180, and 240 min, and quenched with cold acetonitrile (0.7 ml)[28]. The samples were centrifuged for 6 min at 10,000 rpm, and supernatants were analysed by HPLC to check the amounts (area under the curve, AUC) of the remaining intact compound. All the experiments were performed in triplicate. Pseudo-first-order rate constant for the hydrolysis was determined from the slope of linear plots of the natural logarithm (ln) of the AUC of the peak at time t (AUCt) against time. Half-life (t1/2) was calculated according to Equation (1): (1) t1/2 = ln 2/k were k is the pseudo-first-order rate constant.
The chemical stability of 3 was evaluated at different pH values to mimic physiological conditions, including gastrointestinal (GI) tract (pH = 2.0), human plasma (pH = 7.4), and pancreatic fluid (pH = 8.0). As a result, the pH value strongly affected the chemical stability and hydrolysis rate of the hybrid 3 (Figure 2).

[2] = test system: human lung cancer cells (A549); assay: MTT cell viability assay, A549; format: cell-based; settings: 72 h
Procedure: (§1) Experiments were performed on human prostate cancer cells (DU145; ATCC HTB-81), human lung cancer cells (A549; ATCC CCL-185-LUC2) and human bronchial epithelium cells (BEAS-2B; ATCC CRL-9609). Cells were grown in Dulbecco's modified Eagle's medium (DMEM) supplemented with 10% of heat-inactivated foetal bovine serum (FBS), 100 U/ml penicillin and 100 μg/ml streptomycin (Sigma-Aldrich, Steinheim, Germany). Cells were incubated at 37 °C in a humidified atmosphere with 5% CO2. […] Cells were seeded into 96-well plates at a density of 7,0 × 10[3] cells/well in 100 µl of culture medium. After 24 h, cells were treated with the compounds at three different concentrations (1 µM, 10 µM and 50 µM) for 72 h. Following treatments, 0.5 mg/ml of 3-[4,5-dimethylthiazol-2-yl]-2,5-diphenyltetrazolium bromide (MTT) (Sigma Aldrich) was added to each well and incubated for 4 h at 37 °C. Finally, DMSO was used to dissolve formazan salts and absorbance was measured at 570 nm in a microplate reader (Biotek Synergy-HT). […]
(§2) Compound 3 was preliminarily assessed for its cytotoxic activity towards human prostate and lung cancer cell lines (DU145 and A549, respectively), in which the overexpression of the HO-1 has been confirmed[46]^,[47]. […] Cell survival was calculated compared to untreated controls for 72 h. At the end of treatment, cell viability was evaluated using the MTT assay. […]

[3] = test system: human prostate cancer cells (DU145); assay: MTT cell viability assay, DU145; format: cell-based; settings: 72 h
Procedure: as §1, §2

[4] = set-up: method as in PMID 29454190; settings: predicted, ref [34], cited from earlier work
[5] = set-up: method as in PMID 29454190; settings: predicted; ref [34]; cited from earlier work

In the case of `O=C(O)CCC(=O)OC(Cn1ccnc1)c1cccc(Br)c1` (centres unmarked) [Compound 2, 4‐[1‐(3‐bromophenyl)‐2‐(1H‐imidazol‐1‐yl)ethoxy]‐4‐oxobutanoic acid], the IC50 (HO-1) is reported as 105 ± 5.8 µM and the melting point is reported as 64 to 66.5 °C.
In the case of `O=C(CCC(=O)OC(Cn1ccnc1)c1cccc(Br)c1)OCn1cc(F)c(=O)[nH]c1=O` (centres unmarked) [Compound 3, 1‐[1‐(3‐bromophenyl)‐2‐(1H‐imidazol‐1‐yl)ethyl]4‐(5‐fluoro‐2,4‐dioxo‐1,2,3,4‐tetrahydropyrimidin‐1‐yl)methyl butanedioate], the IC50 (HO-1) is reported as 82 ± 2.1 µM, the half-life at 0.15 mg/mL ([1]; PBS buffer without esterase, PBS buffer (pH = 7.4), no esterase, read-out: Half-life (t1/2) of hydrolysis) is reported as 28.1 h and the “% Compound remaining” value ([1]; pH = 2.0, 0 h) is reported as 100 ± 0.0%. The “% Compound remaining” value ([1]; pH = 2.0, 24 h) was 94.2 ± 0.9% and 94.2%, the “% Compound remaining” value ([1]; pH = 2.0, 48 h) was 92.2 ± 0.6% and the “% Compound remaining” value ([1]; pH = 2.0, 72 h) was 86.8 ± 6.0%. For the same compound, the “% Compound remaining” value ([1]; pH = 2.0, 96 h) was 77.1 ± 6.5%, the “% Compound remaining” value ([1]; pH = 2.0, 168 h) was 73.5 ± 4.7% and the “% Compound remaining” value ([1]; pH = 7.4, 0 h) was 100 ± 0.0%. The “% Compound remaining” value ([1]; pH = 7.4, 24 h) was 77.3 ± 3.9% and 77.3%, the “% Compound remaining” value ([1]; pH = 7.4, 48 h) was 71.2 ± 4.5% and the “% Compound remaining” value ([1]; pH = 7.4, 72 h) was 52.6 ± 3.8%. For the same compound, the “% Compound remaining” value ([1]; pH = 7.4, 96 h) was 34.7 ± 2.2%, the “% Compound remaining” value ([1]; pH = 7.4, 168 h) was 18.0 ± 4.2% and the “% Compound remaining” value ([1]; pH = 8.0, 0 h) was 100 ± 0.0%. The “% Compound remaining” value ([1]; pH = 8.0, 24 h) was 50.4 ± 2.4% and 50.4%, the “% Compound remaining” value ([1]; pH = 8.0, 48 h) was 36.1 ± 2.1% and the “% Compound remaining” value ([1]; pH = 8.0, 72 h) was 19.7 ± 1.6%.
`O=c1[nH]cc(F)c(=O)[nH]1` [Compound 5-FU, 5-Fluorouracil, reference compound] showed an IC50 ([2]; Homo sapiens, A549 cells, MTT) of 0.98 ± 0.13 µM and an IC50 ([3]; Homo sapiens, DU-145, DU145 cells, MTT) of 31.7 ± 0.92 µM.
In the case of `OC(Cn1ccnc1)c1cccc(Br)c1` (centres unmarked) [Compound 1, 1–(3-bromophenyl)-2-(1H-imidazol-1-yl)ethanol], the “HIA (%)” value ([4]; human intestinal absorption) is given as 96.1%, the “Papp” value ([4]; in vitro Caco-2 cell permeability) is given as 2.96 ×10⁻⁶ cm/s and the “PPB (%)” value ([4]; in vitro plasma protein binding) is given as 65%. For the same compound, the “BBB (Cbrain/Cblood)” value ([4]; in vivo blood-brain barrier penetration) was 0.7 Cbrain/Cblood, the “Effect on cell viability” value ([2]; A549 cells, 1, 10 and 50 μM) was “no cytotoxic effect” and the “Toxicity prediction: Irritant” value [5] was “none”. The “Toxicity prediction: Mutagenic” value [5] was “none”, the “Toxicity prediction: Reproductive Effects” value [5] was “none” and the “Toxicity prediction: Tumorigenic” value [5] was “none”. The “Effect on cell viability” value ([3]; DU145 cells, 1, 10 and 50 μM) was “no cytotoxic effect”.
